Assay results published in article PMC5632533, “Mechanisms of action and in vivo antibacterial efficacy assessment of five novel hybrid peptides derived from Indolicidin and Ranalexin against Streptococcus pneumoniae” (PeerJ, 2017).

What was measured:
S. pneumoniae [1] = test: Transmission electron microscopy (TEM) of treated cells; assay type: cell-based, Streptococcus pneumoniae; conditions: 10^8 CFU/ml in CAMHB; 8 × MIC (125 µg/ml; RN7-IN7 500 µg/ml); 1 h, 37 °C, 5% CO2
Method: Bacteria were prepared for TEM according to the guidelines of the Electron Microscopy Unit at the Faculty of Medicine, University of Malaya. S. pneumoniae cultures were grown overnight on Columbia agar with 5% sheep blood and suspended in cationally adjusted Mueller-Hinton broth (CAMHB) at 10^8 CFU/ml. […] Cells in cationally adjusted Mueller-Hinton broth (CAMHB) were used as an untreated control. After an hour of incubation, the pneumococcal cells were centrifuged to discard the medium, washed thrice with 10 mM phosphate buffer saline at pH 7.3 and fixed overnight in 4% (v/v) glutaraldehyde. All samples were washed twice with cacodylate buffer, incubated for 2 h in osmium tetroxide buffer (OsO4 1: 1 cacodylate), washed twice with cacodylate buffer and then incubated overnight in cacodylate buffer. All the samples were washed with distilled water twice and incubated for 10 min with uranyl acetate. After this, all samples were then washed twice with distilled water and dehydrated in an ascending series of ethanol: 35% (10 min), 50% (10 min), 70% (10 min), 95% (15 min), and thrice in 100% ethanol (15 min). After dehydration, samples were incubated with propylene oxide (15 min), propylene oxide 1:1 Epon (1 h), propylene oxide 1:3 Epon (2 h) and finally incubated overnight with Epon. All the samples were embedded in agar 100 resin at 37 °C for 5 hr and maintained at 60 °C until viewing. Reichert Ultramicrotome copper grids 3.05 mm (300 square mesh) (Agar Scientific, Essex, United Kingdom) were used to prepare Ultrathin sections. Ethanol-based uranyl acetate and lead citrate were used to stain the samples for 5 min. Transmission electron microscope (Leo Libra 120) was used to capture the images.

S. pneumoniae [2] = test: ATP efflux assay; assay type: cell-based, Streptococcus pneumoniae; conditions: peptides 125 µg/ml (RN7-IN7 500 µg/ml); for ATP released from pneumococcal cells after 3 h / ATP released from pneumococcal cells after 1 h: 1 × 10^7 CFU/ml, luciferin/luciferase, ATP standard curve, mean ± SD, three independent experiments
Method: The amount of ATP released from pneumococcal cells incubated with hybrid peptides was measured as described previously, with a slight modification ([Tanida et al., 2006]). The ATP determination kit (Molecular Probes, Eugene, OR, USA) was used to measure the amount of ATP released based on the luciferin/luciferase method according to the manufacturer’s instructions. Briefly, S. pneumoniae were grown overnight on Columbia agar with 5% sheep blood. Bacterial suspensions were spectrophotometrically adjusted to (1 × 10^7 CFU/ml) and incubated with hybrid peptides RN7-IN10, RN7-IN9, RN7-IN8 and RN7-IN6 at 125 µg/ml and with RN7-IN7 at 500 µg/ml. The amount of ATP released form the pneumococcal cells were measured at three time points 1, 2 and 3 h. The samples were then centrifuged at 5,000 rpm for 5 min, and ATP efflux was subsequently estimated using an ATP standard curve. Values were obtained from three independent experiments. Ceftriaxone and erythromycin were used as positive controls.

[3] = tested on: S. pneumoniae (highly virulent strain); test: In vivo antipneumococcal activity, pneumococcal bacteremia (lethal systemic infection) model; parameters: species or system mice; conditions: for survival of infected mice up to seven days post-infection: 1.5 × 10^2 CFU/mouse IP, 10 mice; for survival of infected mice, treatment via SC and IN routes: up to seven days post-infection
Method: Two pneumococcal infection models developed previously in our lab ([Le et al., 2015]) were used to assess the therapeutic efficacy of peptides in vivo. The systemic infection model was used to mimic pneumococcal bacteremia in humans and the pneumococcal pneumonia model was used to mimic pneumococcal pneumonia in humans. A highly virulent strain was used in both the models. The bacterial isolate was grown overnight on Columbia agar with 5% sheep blood at 37 °C under 5% CO2. The bacterial suspension was adjusted to OD625 0.08-0.1 (1 ∼ 2 × 10^8 CFU/ml). Mice tested for lethal systemic infection were inoculated with 1.5 × 10^2 CFU/mouse (100 μl) via IP route. Mice used to assess the Pneumococcal pneumonia model were inoculated with pneumococcal cells of 5 × 10^3 CFU/mouse (50 μl) via the intrathoracic route.
After 1 hr of inoculation, Mice receiving treatment were randomized and divided into six groups. RN7-IN10 and RN7-IN8 were tested at three different doses for each (5 mg/kg, 10 mg/kg and 20 mg/kg) using a group of 10 mice. Graded doses of ceftriaxone (5 mg/kg, 10 mg/kg, […], 40 mg/kg and 80 mg/kg) were also tested to assess the in vivo antibacterial activity of this antibiotic. Only mice injected with PBS were served as uninfected control. Mice injected with bacterial inoculum were used as untreated control group and given sterile distilled water only. Survival of mice was documented for seven days or until death. After seven days, the experiment was ended, the blood and homogenates of the five major organs (kidney, brain, spleen, liver and lung) of the surviving mice were plated on Columbia agar with 5% sheep blood, to detect the presence of pneumococcal cells. […]

[4] = treatment IP 5 mg/kg (peptides at 1 h, 12 h, 24 h post-infection)
[5] = treatment IP 10 mg/kg (peptides at 1 h, 12 h, 24 h post-infection)
[6] = treatment IP 20 mg/kg (peptides at 1 h, 12 h, 24 h post-infection)

Substance	TEM: detachment of cell wall from cell membrane (S. pneumoniae [1])	ATP released from pneumococcal cells after 3 h (S. pneumoniae [2])	ATP released from pneumococcal cells after 1 h (S. pneumoniae [2])	ATP released, Average 1hr (S. pneumoniae [2]; raw data sheet, mean of 3)	ATP released, Average 2hr (S. pneumoniae [2]; raw data sheet, mean of 3)	ATP released, Average 3hr (S. pneumoniae [2]; raw data sheet, mean of 3)	survival of infected mice up to seven days post-infection [3, 4]	survival of infected mice up to seven days post-infection [3, 5]	survival of infected mice up to seven days post-infection [3, 6]	survival of infected mice, treatment via SC and IN routes [3]
FLGGLIKKWPWWPWRR-NH2 [RN7-IN9, hybrid peptide of ranalexin (residues 1-7) and indolicidin (residues 5-13)]	partial disconnection of the cell wall from the cell membrane	22.9 ± 3.22 pM	–	–	–	–	–	–	–	–
FLGGLIKWKWPWWPWRR-NH2 [RN7-IN10, hybrid peptide of ranalexin (residues 1-7) and indolicidin (residues 4-13)]	–	25.42 ± 3.51 pM	54.5 ± 4.7 pM	54.4965 pM	41.9293 pM	25.4295 pM	failed to treat any of the infected mice	10%	30%	none of the mice survived
FLGGLIKWPWWPWRR-NH2 [RN7-IN8, hybrid peptide of ranalexin (residues 1-7) and indolicidin (residues 6-13)]	partial disconnection of the cell wall from the cell membrane	20.54 ± 1.03 pM	39.03 ± 0.2 pM	–	–	–	failed to treat any of the infected mice	30%	50%	none of the mice survived
FLGGLIKWWPWRR-NH2 [RN7-IN6, hybrid peptide of ranalexin (residues 1-7) and indolicidin (residues 8-13)]	partial disconnection of the cell wall from the cell membrane	11.47 ± 0.32 pM	14.8 ± 0.35 pM	–	–	–	–	–	–	–
